Data published in US20190100534A1, “Cephem Compounds with Latent Reactive Groups” (Gladius Pharmaceuticals, Inc., priority 2017, published 2019).

Legend:
Format in all cases: cell-based
[1] = system: Pseudomonas aeruginosa PA (RR-1); assay: MIC determination; conditions: Pseudomonas aeruginosa; PA (RR-1); CAMH broth, 20 μM Apo-Transferrin, 37° C., 18 hours; read-out: Minimum Inhibitory Concentrations, PA (RR-1)
Procedure: (§1) Sterile technique was used throughout these experiments. Suspensions of organisms were removed from storage (−80° C.) and partially thawed. Partially thawed organisms (1 μL) were inoculated into 3 mL sterile LB Broth in a sterile culture tube and capped, then cultured at 37° C. with shaking for 4-5 hours until the optical density at 600 nm (OD600) was greater than 0.1 on a single beam spectrophotometer.
(§2) The concentration of organisms was adjusted to 0.08-0.1 OD600 (0.5 McFarland units) by dilution with sterile cation-adjusted Meuller-Hinton (CAMH) broth. The suspensions were used within 30 minutes of preparation.
(§3) A stock solution was made of each test compound by measuring 6.4 mg of the compound on an analytical balance and dissolving it in DMSO (1 mL) to get a transparent solution. The solutions were stored at −20° C. and thawed prior to use.
(§4) Sterile CAMH broth (200 μL) containing 20 μM Apo-Transferrin was pipetted into the first row of 8 columns of a sterile, round-bottomed, transparent, 96-well microplate using an 8-channel pipette equipped with sterile tips. One hundred μL was pipetted into the wells of the remaining 11 rows.
(§5) With an 8-channel pipette equipped with sterile tips, 100 μL of the first row solution was transferred to the second row and mixed. The process was repeated for the second to third rows and continued through row 11. One hundred μL from row 11 was removed and discarded so that all 12 rows contained 100 μL. Row 12 contained no compound and rows 1-11 contained 64, 32, 16, 8, 4, 2, 1, 0.5, 0.25, 0.125, […] of a given compound.
(§6) Inoculant suspensions (0.5 μL) were added to the 12 wells of each column. The plates were then covered and incubated at 37° C. overnight for 18 hours.
(§7) For each organism the MIC was determined by identifying the transparent well with the lowest test compound concentration.

[2] = system: Pseudomonas aeruginosa PA (RR-2); assay: MIC determination; conditions: Pseudomonas aeruginosa; PA (RR-2); CAMH broth, 20 μM Apo-Transferrin, 37° C., 18 hours; read-out: Minimum Inhibitory Concentrations, PA (RR-2)
Procedure: as §1, §2, §3, §4, §5, §6, §7

[3] = system: Pseudomonas aeruginosa PA-RR-(98023895); assay: MIC determination; conditions: Pseudomonas aeruginosa; PA-RR-(98023895); CAMH broth, 20 μM Apo-Transferrin, 37° C., 18 hours; read-out: Minimum Inhibitory Concentrations, PA-RR-(98023895)
Procedure: as §1, §2, §3, §4, §5, §6, §7

[4] = system: Pseudomonas aeruginosa PA-RR-(G7294437); assay: MIC determination; conditions: Pseudomonas aeruginosa; PA-RR-(G7294437); CAMH broth, 20 μM Apo-Transferrin, 37° C., 18 hours; read-out: Minimum Inhibitory Concentrations, PA-RR-(G7294437)
Procedure: as §1, §2, §3, §4, §5, §6, §7

[5] = system: Pseudomonas aeruginosa PA-RR-(G7305586); assay: MIC determination; conditions: Pseudomonas aeruginosa; PA-RR-(G7305586); CAMH broth, 20 μM Apo-Transferrin, 37° C., 18 hours; read-out: Minimum Inhibitory Concentrations, PA-RR-(G7305586)
Procedure: as §1, §2, §3, §4, §5, §6, §7

[6] = system: Pseudomonas aeruginosa PA-RR-(purple Fre D); assay: MIC determination; conditions: Pseudomonas aeruginosa, CAMH broth, 20 μM Apo-Transferrin, 37° C., 18 hours, read-out: Minimum Inhibitory Concentrations, PA-RR-(purple Fre D)
Procedure: as §1, §2, §3, §4, §5, §6, §7

E. coli J53 Alone = assay: MIC determination, isogenic E. coli strains; conditions: for MIC: Escherichia coli, J53ALONE, 18 h, read-out: Mimimum Inhibitory Concentrations, J53 Alone; for Mimimum Inhibitory Concentrations, J53 Alone: Table 4-2, CAMH broth, 20 μM Apo-Transferrin, 37° C., 18 hours
Procedure, shortened: (§8)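 Broth microdilution in cation-adjusted Mueller-Hinton broth with 20 μM apo-transferrin, 2-fold compound series from 64 μg/mL. E. coli J53, alone or transformed with a pBC-SK(+) plasmid carrying the beta-lactamase gene (e.g. DHA-1), inoculated from 0.5 McFarland suspension; 18 h at 37° C; MIC = lowest concentration with clear well.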

[7] = system: Isogenic E. coli J58 strain carrying CTX-M-14; assay: MIC determination, isogenic E. coli strains; conditions: Escherichia coli, 18 h, read-out: Mimimum Inhibitory Concentrations, CTX-M-14
Procedure, shortened: (§9)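 Isogenic E. coli J53 carrying plasmid-encoded CTX-M-14 or CTX-M-15 (ampicillin-selected), standardized to 0.08-0.1 OD600, incubated overnight (18 h, 37° C.) in CAMH broth plus 20 μM apo-transferrin over 2-fold compound dilutions starting at 64 μg/mL. Lowest concentration with no visible growth recorded as MIC.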

[8] = system: Isogenic E. coli J58 strain carrying CTX-M-15; assay: MIC determination, isogenic E. coli strains; conditions: Escherichia coli, 18 h, read-out: Mimimum Inhibitory Concentrations, CTX-M-15
Procedure, shortened: as §9

[9] = system: Isogenic E. coli J58 strain carrying NDM-1; assay: MIC determination, isogenic E. coli strains; conditions: Escherichia coli, 18 h, read-out: Mimimum Inhibitory Concentrations, NDM-1
Procedure, shortened: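 E. coli J53 transformed with a pBC-SK(+) plasmid encoding NDM-1 was adjusted to 0.08-0.1 OD600. It was grown 18 h at 37° C in CAMH broth containing 20 μM apo-transferrin with twofold compound dilutions from 64 μg/mL. MIC was taken as the lowest concentration giving a transparent well.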

[10] = system: Isogenic E. coli J58 strain carrying VIM-2; assay: MIC determination, isogenic E. coli strains; conditions: for MIC: Escherichia coli, 18 h, read-out: Mimimum Inhibitory Concentrations, VIM-2; for MICs for an E. coli strain carrying the gene for carbapenemase VIM-1, in words: review of Tables 4-1 and 4-2
Procedure, shortened: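 E. coli J53 transformed with pBC-SK(+) plasmid carrying synthesized VIM-2 gene, grown in LB to OD600 >0.1, adjusted to 0.08–0.1 OD600 in CAMH broth.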

[11] = system: Isogenic E. coli J58 strain carrying DHA-1; assay: MIC determination, isogenic E. coli strains; conditions: Escherichia coli, 18 h, read-out: Mimimum Inhibitory Concentrations, DHA-1
Procedure, shortened: as §8

[12] = system: Isogenic E. coli J58 strain carrying SHV-1; assay: MIC determination, isogenic E. coli strains; conditions: Escherichia coli, 18 h, read-out: Mimimum Inhibitory Concentrations, SHV-1
Procedure, shortened: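 MIC is the lowest compound concentration leaving a transparent well after overnight (18 h) incubation at 37 °C. The test strain was E. coli J53 expressing plasmid-borne SHV-1 beta-lactamase from pBC-SK(+), adjusted to 0.5 McFarland. Compounds were twofold serially diluted, starting at 64 μg/mL, in CAMH broth supplemented with 20 μM apo-transferrin.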

[13] = system: Isogenic E. coli J58 strain carrying IMP-1; assay: MIC determination, isogenic E. coli strains
Procedure, shortened: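 Broth microdilution in cation-adjusted Mueller-Hinton broth with 20 μM apo-transferrin, compound serially diluted two-fold from 64 μg/mL, against E. coli J53 carrying plasmid-borne IMP-1. Inoculum adjusted to 0.5 McFarland; plates incubated 18 h at 37° C. MIC taken as lowest concentration giving a clear well.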

[14] = system: Isogenic E. coli J58 strain carrying TEM-26; assay: MIC determination, isogenic E. coli strains; conditions: Escherichia coli, 18 h, read-out: Mimimum Inhibitory Concentrations, TEM-26
Procedure, shortened: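 Broth microdilution in cation-adjusted Mueller-Hinton broth with 20 μM apo-transferrin, compound […] in twofold steps, inoculum from 0.5 McFarland suspension. E. coli J53 transformed with pBC-SK(+) encoding TEM-26; 18 h at 37° C, MIC as lowest concentration giving a clear well.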

[15] = system: Isogenic E. coli J58 strain carrying KPC-2; assay: MIC determination, isogenic E. coli strains; conditions: Escherichia coli, 18 h, read-out: Mimimum Inhibitory Concentrations, KPC-2
Procedure, shortened: (§10)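 Broth microdilution in cation-adjusted Mueller-Hinton broth with 20 μM apo-transferrin, compound at 64 down to […], inoculum set to 0.5 McFarland. E. coli J53 transformed with pBC-SK(+) carrying the synthetic beta-lactamase gene was used. Plates were incubated 18 h at 37 °C; MIC is the lowest concentration giving a clear well.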

[16] = system: Isogenic E. coli J58 strain carrying KPC-3; assay: MIC determination, isogenic E. coli strains; conditions: Escherichia coli, 18 h, read-out: Mimimum Inhibitory Concentrations, KPC-3
Procedure, shortened: as §10

CC(C)(O/N=C(\C(=O)N[C@@H]1C(=O)N2C(C(=O)O)=C(C=Cc3ccc(C[n+]4ccc(-c5ccc(O)c(O)c5)cc4)cc3)CS[C@H]12)c1csc(N)n1)C(=O)O (mixture of isomers) [Compound 412, 1-(4-((E/Z)-2-((6R,7R)-7-((Z)-2-(2-aminothiazol-4-yl)-2-(((2-carboxypropan-2-yl)oxy)imino)acetamido)-2-carboxy-8-oxo-5-thia-1-azabicyclo[4.2.0]oct-2-en-3-yl)vinyl)benzyl)-4-(3,4-dihydroxyphenyl)pyridin-1-ium]
MIC [1]: 4 µg/mL | MIC [2]: 2 µg/mL | MIC [3]: 4 µg/mL | MIC [4]: 1 µg/mL | MIC [5]: 16 µg/mL | MIC [6]: 2 µg/mL | MIC (E. coli J53 Alone): ≤ 0.06 µg/mL | Mimimum Inhibitory Concentrations, J53 Alone (E. coli J53 Alone): ≤0.06 microgram/mL | MIC [7]: 0.5 µg/mL | MIC [8]: 0.13 µg/mL | MIC [9]: > 64 µg/mL | MIC [10]: 0.5 µg/mL

CC(C)(O/N=C(\C(=O)N[C@@H]1C(=O)N2C(C(=O)O)=C(C=Cc3ccc(C[N+]4(C)Cc5c(Cl)c(O)c(O)c(Cl)c5C4)cc3)CS[C@H]12)c1csc(N)n1)C(=O)O (mixture of isomers) [Compound 431, 2-(4-((E/Z)-2-((6R,7R)-7-((Z)-2-(2-aminothiazol-4-yl)-2-(((2-carboxypropan-2-yl)oxy)imino)acetamido)-2-carboxy-8-oxo-5-thia-1-azabicyclo[4.2.0]oct-2-en-3-yl)vinyl)benzyl)-4,7-dichloro-5,6-dihydroxy-2-methylisoindolin-2-ium]
MIC [1]: 0.13 µg/mL | MIC [2]: ≤ 0.06 µg/mL | MIC [3]: 4 µg/mL | MIC [4]: ≤ 0.06 µg/mL | MIC [5]: 0.5 µg/mL | MIC [6]: 0.5 µg/mL | MIC (E. coli J53 Alone): ≤ 0.06 µg/mL | Mimimum Inhibitory Concentrations, J53 Alone (E. coli J53 Alone): ≤0.06 microgram/mL | MIC [11]: 1 µg/mL | MIC [12]: 0.13 µg/mL | MIC [7]: 0.13 µg/mL | MIC [8]: 0.13 µg/mL | MIC [9]: > 64 µg/mL | MIC [10]: ≤ 0.06 µg/mL | MICs for an E. coli strain carrying the gene for carbapenemase VIM-1, in words [10]: low microgram/mL MICs

CC(C)(O/N=C(\C(=O)N[C@@H]1C(=O)N2C(C(=O)O)=C(C=Cc3ccc(C[N+]4(C)Cc5cc(O)c(O)c(Cl)c5C4)cc3)CS[C@H]12)c1csc(N)n1)C(=O)O (mixture of isomers) [Compound 432, 2-(4-((E/Z)-2-((6R,7R)-7-((Z)-2-(2-aminothiazol-4-yl)-2-(((2-carboxypropan-2-yl)oxy)imino)acetamido)-2-carboxy-8-oxo-5-thia-1-azabicyclo[4.2.0]oct-2-en-3-yl)vinyl)benzyl)-4-chloro-5,6-dihydroxy-2-methylisoindolin-2-ium]
MIC [1]: 1 µg/mL | MIC [2]: 0.13 µg/mL | MIC [3]: 4 µg/mL | MIC [4]: ≤ 0.06 µg/mL | MIC [5]: 1 µg/mL | MIC [6]: 1 µg/mL | MIC (E. coli J53 Alone): ≤ 0.06 µg/mL | Mimimum Inhibitory Concentrations, J53 Alone (E. coli J53 Alone): ≤0.06 microgram/mL | MIC [11]: ≤ 0.06 µg/mL | MIC [7]: ≤ 0.06 µg/mL | MIC [8]: ≤ 0.06 µg/mL | MIC [9]: > 64 µg/mL | MIC [10]: ≤ 0.06 µg/mL | MICs for an E. coli strain carrying the gene for carbapenemase VIM-1, in words [10]: low microgram/mL MICs | MICs for an E. coli strain carrying the gene for carbapenemase IMP-1, in words ([13]; review of Tables 4-1 and 4-2): low microgram/mL MICs

C#CC[N+]1(Cc2ccc(C=CC3=C(C(=O)O)N4C(=O)[C@@H](NC(=O)/C(=N\OC(C)(C)C(=O)O)c5csc(N)n5)[C@H]4SC3)cc2)CCc2cc(O)c(O)cc2C1 (mixture of isomers) [Compound 446, 2-(4-((E/Z)-2-((6R,7R)-7-((Z)-2-(2-aminothiazol-4-yl)-2-(((2-carboxypropan-2-yl)oxy)imino)acetamido)-2-carboxy-8-oxo-5-thia-1-azabicyclo[4.2.0]oct-2-en-3-yl)vinyl)benzyl)-6,7-dihydroxy-2-(prop-2-yn-1-yl)-1,2,3,4-tetrahydroisoquinolin-2-ium]
MIC (E. coli J53 Alone): 0.13 µg/mL | Mimimum Inhibitory Concentrations, J53 Alone (E. coli J53 Alone): 0.13 microgram/mL | MIC [11]: 0.25 µg/mL | MIC [14]: 0.25 µg/mL | MIC [7]: 0.25 µg/mL | MIC [8]: 0.25 µg/mL | MIC [15]: 2 µg/mL | MIC [16]: 1 µg/mL | MIC [9]: > 64 µg/mL | MIC [10]: 0.25 µg/mL | MIC ([13]; Escherichia coli, 18 h, read-out: Mimimum Inhibitory Concentrations, IMP-1): 1 µg/mL
